Results reported in article PMC4867112 (Biochemistry, 2016).

T1: DREAM(Δ64) (Mus musculus, UniProt Q9QXT8)
T1 sequence (Q9QXT8 65-256): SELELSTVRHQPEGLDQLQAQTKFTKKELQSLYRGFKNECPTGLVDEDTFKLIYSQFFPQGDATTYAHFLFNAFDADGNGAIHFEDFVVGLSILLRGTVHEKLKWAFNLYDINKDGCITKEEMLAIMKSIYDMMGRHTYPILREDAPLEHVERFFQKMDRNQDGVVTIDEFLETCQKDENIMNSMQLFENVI


Key:
DREAM(Δ64) = molecular target: T1, DREAM(Δ64); experiment: Tb3+ luminescence decay titration; format: binding
[1] = molecular target: the molecule itself; experiment: fluorescence anisotropy decay

Kd (DREAM(Δ64)) [µM] | Molecule | stoichiometry N [1]
~37 | O=C(Nc1cc(C(F)(F)F)cc(C(F)(F)F)c1)Nc1c(Br)cc(Br)cc1-c1nn[nH]n1 [NS5806, 1-[2,4-dibromo-6-(1H-tetrazol-5-yl)-phenyl]-3-(3,5-bis-trifluoromethyl-phenyl)urea] | 
 | DREAM(Δ64), mouse DREAM (downstream regulatory element antagonist modulator) construct lacking residues 1–64 (domain or fragment, UniProt Q9QXT8 65-256, looked up) SELELSTVRHQPEGLDQLQAQTKFTKKELQSLYRGFKNECPTGLVDEDTFKLIYSQFFPQGDATTYAHFLFNAFDADGNGAIHFEDFVVGLSILLRGTVHEKLKWAFNLYDINKDGCITKEEMLAIMKSIYDMMGRHTYPILREDAPLEHVERFFQKMDRNQDGVVTIDEFLETCQKDENIMNSMQLFENVI | 2
